This assay deals with T1, S100P (Homo sapiens, UniProt P25815).
T1 construct: 15N-labeled human S100P (95 amino acid residues)
T1 sequence (P25815 1-95): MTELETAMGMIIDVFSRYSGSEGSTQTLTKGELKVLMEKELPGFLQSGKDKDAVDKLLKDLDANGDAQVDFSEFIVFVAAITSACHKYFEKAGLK
Nature of the assay: 1H-15N HSQC NMR titration (chemical shift perturbation). In kind it is binding.

By Kd is commonly meant a measure of binding affinity in units of concentration.

On to `N=C(N)c1ccc(OCCCCCOc2ccc(C(=N)N)cc2)cc1` [pentamidine], for which the Kd was determined as 48.7 µM.

Source of the values: publication PMC8145327, “S100P Interacts with p53 while Pentamidine Inhibits This Interaction” (Biomolecules, 2021).
